Where a name gives a salt, the structure may show the parent alone.
Assays:
[1] = single injection; cited from earlier work
[2] = diffusion/release of free (unencapsulated) BP through hemostat matrix, dialysis method; type: physicochemical; conditions: 1 mg free BP-HCl in 50 or 100 mg Gelfoam or Avitene; 1xPBS pH 7.2, 37° C.; over 24 hours
Protocol: FIG. 5 is a graphical representation of the release of unencapsulated BP from matrix material. 1 mg of free BP—HCl in 0.9 wt/vol % NaCl was combined with either Gelfoam® or Avitene™ (at either 50 mg or 100 mg of matrix) and monitored for release through the matrix over time. The samples were placed in dialysis tubing and submerged in 1×PBS (pH=7.2) at 37° C.
To test the diffusion of free BP (i.e., not encapsulated in microparticles) through the hemostat, the material (i.e., free BP mixed with hemostat) was submerged in physiological media and the released BP measured over time.
In vitro release studies were performed using a dialysis method. […]
UHPLC analysis of released BP was performed on a Waters (Milford, Mass.) ACQUITY UHPLC system equipped with a PDA detector set to 205 nm to quantify BP. […]
The acid form of BP was chromatographically separated on a Waters ACQUITY BEH C18 column (1.7 μm, 2.1×50 mm) by isocratic elution with 70% phosphate buffer/30% ACN at a flow rate of 0.60 mL/min. […] Calibration standards were analyzed and the peaks corresponding to BP were integrated, plotted against the concentration, and the calibration curve was calculated by linear least-squares regression without weighting. […]

Row | release of free BP from the hemostat [2] | SMILES | complete elimination [1] | time to maximum plasma drug concentration [1]
1 | – | CCCCN1CCCCC1C(=O)Nc1c(C)cccc1C (stereo not drawn) [bupivacaine] | 6 to 8 h | 30 to 45 min
2 | majority of free BP was released | CCCCN1CCCCC1C(=O)Nc1c(C)cccc1C (stereo not drawn) [free BP, bupivacaine hydrochloride monohydrate] | – | –
